According to patent EP0183129A1, “Quinolonecarboxylic acid derivatives” (KYORIN PHARMACEUTICAL CO., LTD., priority 1984, dated 1986):
In brackets after ≈: the same amount, converted by molar mass. Where a name gives a salt, the structure may show the parent alone. Read-outs that look alike come from different tables or passages of the source.

Columns and labels:
S. pneumoniae 15 = assay: In vitro antibacterial activity, MIC (clinical isolates); format: cell-based; conditions: Streptococcus pneumoniae; S. pneumoniae 15; 10^6 cells/ml; clinical isolate; read-out: MIC
S. faecalis 402 = assay: as above; format: cell-based; conditions: Enterococcus faecalis; S. faecalis 402; 10^6 cells/ml; clinical isolate; read-out: MIC
S. agalactiae 4394 = assay: as above; format: cell-based; conditions: Streptococcus agalactiae; S. agalactiae 4394; 10^6 cells/ml; clinical isolate; read-out: MIC
E. coli ATCC 10536 = assay: In vitro antibacterial activity, MIC (standard strain); format: cell-based; conditions: Escherichia coli, ATCC10536
B. fragilis 25285 = assay: as above; format: cell-based, Bacteroides fragilis; conditions: Bacteroides fragilis, 25285, B. fragilis 25285; 10^6 cells/ml; standard strain; read-out: MIC
[1] = test system: Klebsiella pneumoniae KY(GN)6445; assay: as above; format: cell-based; conditions: Klebsiella pneumoniae KY(GN)6445; 10^6 cells/ml; standard strain; read-out: MIC
S. agalactiae 4468 = assay: In vitro antibacterial activity, MIC (clinical isolates); format: cell-based; conditions: Streptococcus agalactiae; S. agalactiae 4468; 10^6 cells/ml; clinical isolate; read-out: MIC
[2] = test system: Fusobacterium varium KYA 8501; assay: In vitro antibacterial activity, MIC (standard strain); format: cell-based; conditions: Fusobacterium varium, KYA8501, Fusobacterium varium KYA 8501; 10^6 cells/ml; standard strain; read-out: MIC
S. pyogenes 3102 = assay: In vitro antibacterial activity, MIC (clinical isolates); format: cell-based; conditions: Streptococcus pyogenes; S. pyogenes 3102; 10^6 cells/ml; clinical isolate; read-out: MIC
S. marcescens GN 7577 = assay: In vitro antibacterial activity, MIC (standard strain); format: cell-based; conditions: Serratia marcescens, GN7577; S. marcescens GN 7577; 10^6 cells/ml; standard strain; read-out: MIC
S. agalactiae 4342 = assay: In vitro antibacterial activity, MIC (clinical isolates); format: cell-based; conditions: Streptococcus agalactiae; S. agalactiae 4342; 10^6 cells/ml; clinical isolate; read-out: MIC
S. faecalis IID 682 = assay: In vitro antibacterial activity, MIC (standard strain); format: cell-based; conditions: Enterococcus faecalis, IID682; S. faecalis IID 682; 10^6 cells/ml; standard strain; read-out: MIC
[3] = test system: Staphylococcus aureus 209 P; assay: as above; format: cell-based
[4] = test system: Clostridium perfringens KYA 13123; assay: microbe, parasite or virus in culture; format: cell-based; conditions: KYA13123
S. pyogenes 3130 = assay: In vitro antibacterial activity, MIC (clinical isolates); format: cell-based; conditions: Streptococcus pyogenes, read-out: MIC
S. epidermidis IID 866 = assay: In vitro antibacterial activity, MIC (standard strain); format: cell-based; conditions: Staphylococcus epidermidis
[5] = test system: Enterobacter cloacae IID 977; assay: as above; format: cell-based; conditions: Enterobacter cloacae, IID977, Enterobacter cloacae IID 977; 10^6 cells/ml; standard strain; read-out: MIC
[6] = test system: Yersinia enterocolitica IID 981; assay: as above; format: cell-based; conditions: IID981; Yersinia enterocolitica IID 981; 10^6 cells/ml; standard strain; read-out: MIC
P. aeruginosa IID 1210 = assay: as above; format: cell-based; conditions: Pseudomonas aeruginosa, IID1210; P. aeruginosa IID 1210; 10^6 cells/ml; standard strain; read-out: MIC
[7] = test system: Acinetobacter anitratus IID 876; assay: as above; format: cell-based; conditions: Acinetobacter calcoaceticus, IID876, Acinetobacter anitratus IID 876; 10^6 cells/ml; standard strain; read-out: MIC
S. agalactiae 4470 = assay: In vitro antibacterial activity, MIC (clinical isolates); format: cell-based; conditions: Streptococcus agalactiae; S. agalactiae 4470; 10^6 cells/ml; clinical isolate; read-out: MIC
K. pneumoniae 1-220S = assay: In vitro antibacterial activity, MIC (standard strain); format: cell-based; conditions: Klebsiella pneumoniae, 1220S; K. pneumoniae 1-220S; 10^6 cells/ml; standard strain; read-out: MIC
E. coli ML 4707 = assay: as above; format: cell-based; conditions: Escherichia coli, ML4707; E. coli ML 4707; 10^6 cells/ml; standard strain; read-out: MIC
S. pyogenes 4372 = assay: In vitro antibacterial activity, MIC (clinical isolates); format: cell-based; conditions: Streptococcus pyogenes; S. pyogenes 4372; 10^6 cells/ml; clinical isolate; read-out: MIC
S. aureus Smith = assay: In vitro antibacterial activity, MIC (standard strain); format: cell-based, Staphylococcus aureus; conditions: Staphylococcus aureus, S. aureus Smith, 10^6 cells/ml, standard strain
[8] = test system: Salmonella entritidis IID 604; assay: as above; format: cell-based; conditions: IID604; Salmonella entritidis IID 604; 10^6 cells/ml; standard strain; read-out: MIC
[9] = test system: Bacillus subtilis PCI 219; assay: as above; format: cell-based; conditions: PCI219
S. pneumoniae IID 552 = assay: as above; format: cell-based; conditions: Streptococcus pneumoniae, IID552; S. pneumoniae IID 552; 10^6 cells/ml; standard strain; read-out: MIC
S. pneumoniae 3227 = assay: In vitro antibacterial activity, MIC (clinical isolates); format: cell-based; conditions: Streptococcus pneumoniae; S. pneumoniae 3227; 10^6 cells/ml; clinical isolate; read-out: MIC
S. faecalis 49 = assay: as above; format: cell-based; conditions: Enterococcus faecalis; S. faecalis 49; 10^6 cells/ml; clinical isolate; read-out: MIC
[10] = test system: Streptococcus pyogenes S-8; assay: In vitro antibacterial activity, MIC (standard strain); format: cell-based; conditions: S8; Streptococcus pyogenes S-8; 10^6 cells/ml; standard strain; read-out: MIC
[11] = E. coli ATCC 10536, 10^6 cells/ml, standard strain, read-out: MIC
[12] = Staphylococcus aureus 209 P, 10^6 cells/ml, standard strain, read-out: MIC
[13] = IID866, S. epidermidis IID 866, 10^6 cells/ml, standard strain, read-out: MIC
[14] = Bacillus subtilis PCI 219, 10^6 cells/ml, standard strain, read-out: MIC

Compound | MIC (S. pneumoniae 15) | MIC (S. faecalis 402) | MIC (S. agalactiae 4394) | MIC (B. fragilis 25285) | MIC [1] | MIC (S. agalactiae 4468) | MIC [2] | MIC (S. pyogenes 3102) | MIC (S. marcescens GN 7577) | MIC (S. agalactiae 4342) | MIC (S. faecalis IID 682) | MIC [4] | MIC (S. pyogenes 3130) | MIC [5] | MIC [6] | MIC (P. aeruginosa IID 1210) | MIC [7] | MIC (S. agalactiae 4470) | MIC (K. pneumoniae 1-220S) | MIC (E. coli ML 4707) | further results
CN(C)CC1CCN(c2c(F)cc3c(=O)c(C(=O)O)cn(C4CC4)c3c2F)C1 (stereo not drawn) [Example 21, 1-Cyclopropyl-6,8-difluoro-1,4-dihydro-7-(3-dimethylaminomethyl-1-pyrrolidinyl)-4-oxo-3-quinolinecarboxylic acid] | 0.2 µg/mL (≈ 0.511 µM) | 0.2 µg/mL (≈ 0.511 µM) | 0.2 µg/mL (≈ 0.511 µM) | 0.2 µg/mL (≈ 0.511 µM) | 0.05 µg/mL (≈ 0.128 µM) | 0.2 µg/mL (≈ 0.511 µM) | 3.13 µg/mL (≈ 8 µM) | 0.1 µg/mL (≈ 0.255 µM) | 1.56 µg/mL (≈ 3.99 µM) | 0.2 µg/mL (≈ 0.511 µM) | 0.2 µg/mL (≈ 0.511 µM) | 0.2 µg/mL (≈ 0.511 µM) | 0.1 µg/mL (≈ 0.255 µM) | 0.2 µg/mL (≈ 0.511 µM) | 0.1 µg/mL (≈ 0.255 µM) | 3.13 µg/mL (≈ 8 µM) | 0.05 µg/mL (≈ 0.128 µM) | 0.2 µg/mL (≈ 0.511 µM) | 0.2 µg/mL (≈ 0.511 µM) | 0.05 µg/mL (≈ 0.128 µM) | MIC (E. coli ATCC 10536; [11]): 0.05 µg/mL (≈ 0.128 µM); MIC [3, 12]: 0.05 µg/mL (≈ 0.128 µM); MIC (S. epidermidis IID 866; [13]): 0.05 µg/mL (≈ 0.128 µM); MIC (S. pyogenes 4372): 0.2 µg/mL (≈ 0.511 µM); MIC (S. aureus Smith; read-out: MIC): 0.05 µg/mL (≈ 0.128 µM); MIC [8]: 0.1 µg/mL (≈ 0.255 µM); MIC [9, 14]: 0.05 µg/mL (≈ 0.128 µM); MIC (S. pneumoniae IID 552): 0.2 µg/mL (≈ 0.511 µM); MIC (S. pneumoniae 3227): 0.2 µg/mL (≈ 0.511 µM); MIC (S. faecalis 49): 0.2 µg/mL (≈ 0.511 µM); MIC [10]: 0.1 µg/mL (≈ 0.255 µM)
NCC1CCN(c2c(F)cc3c(=O)c(C(=O)O)cn(C4CC4)c3c2Br)C1 (stereo not drawn) [Example 15, 7-(3-Aminomethyl-l-pyrrolidinyl)-8-bromo-l-cyclopropyl-6-fluoro-1,4-dihydro-4-oxo-3-quinolinecarboxylic acid] | 0.05 µg/mL (≈ 0.118 µM) | 0.2 µg/mL (≈ 0.471 µM) | 0.2 µg/mL (≈ 0.471 µM) | ≤ 0.05 µg/mL | 0.025 µg/mL (≈ 0.0589 µM) | 0.05 µg/mL (≈ 0.118 µM) | 0.39 µg/mL (≈ 0.919 µM) | 0.05 µg/mL (≈ 0.118 µM) | 0.78 µg/mL (≈ 1.84 µM) | 0.1 µg/mL (≈ 0.236 µM) | 0.1 µg/mL (≈ 0.236 µM) | 0.1 µg/mL (≈ 0.236 µM) | 0.05 µg/mL (≈ 0.118 µM) | 0.05 µg/mL (≈ 0.118 µM) | 0.05 µg/mL (≈ 0.118 µM) | 0.78 µg/mL (≈ 1.84 µM) | 0.05 µg/mL (≈ 0.118 µM) | 0.05 µg/mL (≈ 0.118 µM) | 0.05 µg/mL (≈ 0.118 µM) | 0.025 µg/mL (≈ 0.0589 µM) | MIC (E. coli ATCC 10536): 0.0125 µg/mL (≈ 0.0295 µM); MIC ([3]; Staphylococcus aureus, 209P): 0.0125 µg/mL (≈ 0.0295 µM); MIC (S. epidermidis IID 866; IID866): 0.0125 µg/mL (≈ 0.0295 µM); MIC (S. pyogenes 4372): 0.05 µg/mL (≈ 0.118 µM); MIC (S. aureus Smith): 0.0125 µg/mL (≈ 0.0295 µM); MIC [8]: 0.025 µg/mL (≈ 0.0589 µM); MIC ([9]; Bacillus subtilis): 0.0125 µg/mL (≈ 0.0295 µM); MIC (S. pneumoniae IID 552): 0.05 µg/mL (≈ 0.118 µM); MIC (S. pneumoniae 3227): 0.05 µg/mL (≈ 0.118 µM); MIC (S. faecalis 49): 0.2 µg/mL (≈ 0.471 µM); MIC [10]: 0.05 µg/mL (≈ 0.118 µM)
CCCNCC1CCN(c2c(F)cc3c(=O)c(C(=O)O)cn(C4CC4)c3c2F)C1 (stereo not drawn) [Example 10, 1-Cyclopropyl-6,8-difluoro-1,4-dihydro-4-oxo-7-(3-n-propylaminomethyl-l-pyrrolidinyl)-3-quinolinecarboxylic acid hydrochloride] | 0.39 µg/mL | 0.39 µg/mL | 0.78 µg/mL | 0.78 µg/mL | 0.05 µg/mL | 0.39 µg/mL | 6.25 µg/mL | 0.2 µg/mL | 3.13 µg/mL | 0.2 µg/mL | 0.39 µg/mL | 0.39 µg/mL | 0.2 µg/mL | 0.2 µg/mL | 0.1 µg/mL | 3.13 µg/mL | 0.05 µg/mL | 0.39 µg/mL | 0.2 µg/mL | 0.2 µg/mL | MIC (E. coli ATCC 10536; [11]): 0.1 µg/mL; MIC [3, 12]: 0.05 µg/mL; MIC (S. epidermidis IID 866; [13]): 0.1 µg/mL; MIC (S. pyogenes 4372): 0.39 µg/mL; MIC (S. aureus Smith; read-out: MIC): 0.05 µg/mL; MIC [8]: 0.1 µg/mL; MIC [9, 14]: 0.0125 µg/mL; MIC (S. pneumoniae IID 552): 0.39 µg/mL; MIC (S. pneumoniae 3227): 0.2 µg/mL; MIC (S. faecalis 49): 0.39 µg/mL; MIC [10]: 0.39 µg/mL
